In patent publication US9388164B2, “Methods of using pyruvate kinase activators” (AGIOS PHARMACEUTICALS, INC, priority 2011, dated 2016) one finds AC50 data, which are given here for 1 compound.

SMILES strings stand for the structures.

Holding throughout (type): biochemical
Assay [1] addresses PKR T384W (Homo sapiens, UniProt P30613). In words: PKR Mutant Assay, AC50 (T384W). The protocol: (§1) • PKR or PKR mutant enzyme solution was diluted in assay buffer. • 2 μL of test compound was added into wells first, and then 180 μL reaction mix was added. • Reactions mixture with test compound was assembled except for ADP, and plates were stored for 60 minutes at room temperature. • 20 uL ADP was added to start reaction at room temperature and reaction progress was measured as changes in absorbance at 340 nm wavelength at room temperature.
(§2) Test Compound Preparation: • Test compound stock was made at 100× concentration in 100% DMSO (10 mM) • 1 to 3 dilutions were made for 11 points (i.e. 50 μl of first concentration added to 100 μl 100% DMSO to yield 3.33 mM, 50 μl of this added to 100 μl DMSO to yield 1.11 mM, and so forth) • 1 to 100 dilution into assay (2 μl in 200 μl) yielded starting concentration of 100 μM, decreasing 3 fold for 11 points.

Assay [2] deals with PKR G364D (Homo sapiens, UniProt P30613, G364D). The assay is described as follows: PKR Mutant Assay, AC50 (G364D). The protocol: as §1, §2
PKR G364D, sequence (P30613 whole entry G364D): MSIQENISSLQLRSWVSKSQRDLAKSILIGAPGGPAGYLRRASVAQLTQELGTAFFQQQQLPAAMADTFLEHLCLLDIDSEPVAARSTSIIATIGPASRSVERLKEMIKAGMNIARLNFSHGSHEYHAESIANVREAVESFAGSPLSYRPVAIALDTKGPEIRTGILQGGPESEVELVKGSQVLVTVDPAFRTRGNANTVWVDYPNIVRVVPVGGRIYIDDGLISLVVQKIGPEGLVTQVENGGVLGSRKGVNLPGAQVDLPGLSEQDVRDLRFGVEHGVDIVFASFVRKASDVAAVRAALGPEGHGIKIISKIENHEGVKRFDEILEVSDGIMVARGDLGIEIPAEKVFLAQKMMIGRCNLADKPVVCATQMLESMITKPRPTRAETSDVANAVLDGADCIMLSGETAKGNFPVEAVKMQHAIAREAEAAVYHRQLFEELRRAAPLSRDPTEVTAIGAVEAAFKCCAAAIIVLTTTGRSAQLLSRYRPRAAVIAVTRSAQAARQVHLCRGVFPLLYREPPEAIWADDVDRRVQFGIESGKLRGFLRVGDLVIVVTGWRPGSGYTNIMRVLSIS
Assay [3] deals with PKR R532W (Homo sapiens, UniProt P30613, R532W). In words: PKR Mutant Assay, AC50 (R532W). The protocol: as §1, §2
PKR R532W, sequence (P30613 whole entry R532W): as the sequence (P30613 whole entry G364D) above, with D364G, R532W counted along it
Assay [4] deals with PKR R479H (Homo sapiens, UniProt P30613, R479H). The assay is described as follows: PKR Mutant Assay, AC50 (R479H). Here is the method:
as §1, §2

The target in assay [5] is PKR R510Q (Homo sapiens, UniProt P30613, R510Q). In words: PKR Mutant Assay, AC50 (R510Q). Here is the method: as §1, §2
PKR R510Q, sequence (P30613 whole entry R510Q): as the sequence (P30613 whole entry G364D) above, with D364G, R510Q counted along it

PKR R479H, sequence (P30613 whole entry R479H): as the sequence (P30613 whole entry G364D) above, with D364G, R479H counted along it
PKR T384W, sequence (P30613 whole entry T384M): as the sequence (P30613 whole entry G364D) above, with D364G, T384M counted along it

On to `O=C(c1ccc(NS(=O)(=O)c2cccc3cccnc23)cc1)N1CC(O)(Cc2ccccc2)C1` [drawing 71], for which the AC50 is below 100 nM in assay [1]; 101 to 500 nM in assay [2]; below 100 nM in assay [3]; below 100 nM in assay [4]; 101 to 500 nM in assay [5].

What is called AC50 is the midpoint of the concentration-response curve, whichever way the signal moves. Low readings indicate greater potency, high ones weaker potency.
